Results as given in US7897772B2, “Acid addition salt of irinotecan” (priority 2004, dated 2011).
Counter-ions that a name gives are not always drawn.

Legend:
[1] = Dissolution of 100 mg/mL salt suspensions on heating and later crystal deposition at 25° C. (Example 2); assay type: physicochemical; details: for Dissolution on heating: 100 mg/mL
Protocol: The thus-produced irinotecan nitric acid addition salt solution was stirred at 25° C. After stirring of the solution for about 42 hours, crystals of the irinotecan nitric acid addition salt were deposited.

[2] = Dissolution of irinotecan acid addition salts in water at 100 mg/mL at room temperature and state of the solution after 6 days of stirring (Example 1); assay type: physicochemical; details: for Dissolution of the salt in water at room temperature: salt content adjusted to 100 mg/mL, no heating
Protocol: To an aqueous suspension of irinotecan (1-ethyl-10-[4-(1-piperidino)-1-piperidino]carbonyloxycamptothecin) produced through the method disclosed in Patent Document 1, each acid species was added, to thereby produce a corresponding irinotecan acid addition salt. The irinotecan acid addition salt content was adjusted to 100 mg/mL. […] Each of the aqueous solutions employing sulfuric acid, phosphoric acid methanesulfonic acid, citric acid, maleic acid, and succinic acid, respectively, was filtered by a membrane filter, and the filtrate was stirred at room temperature (25° C.). After continuous stirring for 6 days, the aqueous solution was visually observed so as to evaluate the state of the solution.

CCc1c2c(nc3ccc(OC(=O)N4CCC(N5CCCCC5)CC4)cc13)-c1cc3c(c(=O)n1C2)COC(=O)[C@]3(O)CC [Irinotecan acetic acid addition salt, reference compound]
Dissolution on heating ([1]; stirred at 100° C. for 30 minutes): maintained undissolved
Dissolution of the salt in water at room temperature ([2]; listed as acetic acid): not dissolved in water at room temperature

CCc1c2c(nc3ccc(OC(=O)N4CCC(N5CCCCC5)CC4)cc13)-c1cc3c(c(=O)n1C2)COC(=O)[C@]3(O)CC [Irinotecan nitric acid addition salt, irinotecan nitric acid salt]
Stirring time after which crystals were deposited ([1]; 100 mg/mL solution dissolved by heating, then stirred at 25° C.): about 42 hours
Dissolution on heating ([1]; 70° C. under stirring for three minutes): completely dissolved
State of the Solution after Day 6 (footnote symbol: salt not dissolved) ([2]; 100 mg/mL in water at room temperature): *1
Dissolution of the salt in water at room temperature ([2]; listed as nitric acid): not dissolved in water at room temperature
